# Reference: PubChem BioAssay (NCI)
#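 Compound exposure: 48 hours, 5 concentrations, 96-well plates. GI50 is the concentration that inhibits growth by half. Definition used: TGI = concentration required for complete inhibition of growth.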
# What was measured:
# Assay in all cases: DTP human tumour cell line panel, 48 h
# [1] = test system: A498 renal
# [2] = test system: HCT-116 colon
# [3] = test system: MOLT-4 leukemia
# [4] = test system: UACC-62 melanoma
# [5] = test system: IGROV1 ovarian
# [6] = test system: SW-620 colon
# [7] = test system: TK-10 renal
# [8] = test system: MALME-3M melanoma
# [9] = test system: KM12 colon
# [10] = test system: COLO 205 colon
# [11] = test system: OVCAR-4 ovarian
# [12] = test system: CCRF-CEM leukemia
# [13] = test system: SK-MEL-2 melanoma
# [14] = test system: NCI-H23 lung
# [15] = test system: OVCAR-8 ovarian
# [16] = test system: U251 CNS
# [17] = test system: K-562 leukemia
# [18] = test system: MDA-N
SMILES,TGI [1],TGI [2],TGI [3],GI50 [4],TGI [4],GI50 [5],TGI [5],TGI [6],TGI [7],TGI [8],TGI [9],TGI [10],TGI [11],TGI [12],TGI [13],TGI [14],TGI [15],TGI [16],TGI [17],TGI [18]
COc1cc2c(cc1C)NC(=O)/C2=C/c1cccnc1,24.6 µM,31.2 µM,24.1 µM,10.1 µM,25.9 µM,19.5 µM,> 100 µM,53.1 µM,31.1 µM,> 52.9 µM,29.1 µM,> 47.9 µM,56.4 µM,> 56.8 µM,46.5 µM,24.8 µM,> 58.7 µM,> 52.5 µM,40.2 µM,–
O=S(=O)(/N=S(/Nc1ccccc1)C(Cl)Cl)c1ccccc1 (stereo unspecified),–,> 100 µM,> 100 µM,–,> 100 µM,–,> 100 µM,> 100 µM,> 100 µM,> 100 µM,> 100 µM,> 100 µM,> 100 µM,> 100 µM,> 100 µM,> 100 µM,> 100 µM,> 100 µM,> 100 µM,> 100 µM
C1=C(CC2=C[P+](c3ccccc3)(c3ccccc3)C=C(c3ccccc3)O2)OC(c2ccccc2)=C[P+]1(c1ccccc1)c1ccccc1,2.09 µM,1.25 µM,1.6 µM,–,–,–,0.43 µM,1.42 µM,1.67 µM,0.697 µM,1.1 µM,0.301 µM,–,1.54 µM,–,2.2 µM,0.69 µM,1.23 µM,–,1.22 µM
CC1(n2nc(-c3ccccc3)n(-c3ccccc3)c2=O)CSC1,> 100 µM,> 100 µM,> 100 µM,–,> 100 µM,–,> 100 µM,> 100 µM,> 100 µM,–,> 100 µM,> 100 µM,> 100 µM,> 100 µM,> 100 µM,> 100 µM,> 100 µM,> 100 µM,> 100 µM,–
COc1ccc(N2C(=O)C3c4[nH]c5ccc(C)cc5c4C4CCC(C(C)(C)C)CC4C3C2=O)cc1 (stereo unspecified),–,40.5 µM,34.9 µM,–,29.7 µM,–,> 100 µM,69.8 µM,45.1 µM,–,> 100 µM,> 100 µM,10.8 µM,16.7 µM,–,86.5 µM,25.1 µM,–,41.2 µM,–
O=C1c2ccccc2C(=O)C2NC(CCCCCSSCCCCCC3=NC4C(=O)c5ccccc5C(=O)C4N3)=NC12 (stereo unspecified),> 100 µM,> 100 µM,> 100 µM,–,–,–,> 100 µM,> 100 µM,> 100 µM,–,> 100 µM,–,> 100 µM,> 100 µM,> 100 µM,> 100 µM,> 100 µM,> 100 µM,> 100 µM,–
Cc1nc(N)c(N2CCN(S(N)(=O)=O)CC2)c(=O)[nH]1,> 100 µM,> 100 µM,> 100 µM,–,–,–,–,> 100 µM,> 100 µM,> 100 µM,> 100 µM,> 100 µM,> 100 µM,> 100 µM,> 100 µM,> 100 µM,> 100 µM,> 100 µM,> 100 µM,–
N=c1c2ccccc2nc2oc3cc([N+](=O)[O-])ccc3n12,–,> 100 µM,> 100 µM,–,> 100 µM,–,> 100 µM,> 100 µM,36.6 µM,> 100 µM,> 100 µM,> 100 µM,> 100 µM,> 100 µM,> 100 µM,49.5 µM,51.2 µM,29.6 µM,> 100 µM,> 100 µM
CCN(CCCl)c1cc(CN(C)C)cc(NC(=O)c2ccc(C(=O)Nc3cc(CN(C)C)cc(N(CC)CCCl)c3)cc2)c1,–,1.06 µM,0.248 µM,–,0.273 µM,–,0.732 µM,1.92 µM,2.57 µM,0.88 µM,1.36 µM,0.551 µM,9.46 µM,1.01 µM,3.23 µM,0.472 µM,1.63 µM,1.64 µM,1.6 µM,0.594 µM
CC12CCCC(C(=O)O)(C1)[C@H](C(C)(C)C(=O)O)CC2 (stereo partly specified),–,> 100 µM,> 100 µM,–,> 100 µM,–,> 100 µM,> 100 µM,> 100 µM,> 100 µM,> 100 µM,> 100 µM,> 100 µM,> 100 µM,> 100 µM,> 100 µM,> 100 µM,> 100 µM,> 100 µM,> 100 µM
C=C(C)C1CC=C(C)C(=O)C1 (stereo unspecified),–,> 100 µM,> 100 µM,–,–,–,> 100 µM,> 100 µM,> 100 µM,> 100 µM,> 100 µM,> 100 µM,> 100 µM,> 100 µM,> 100 µM,> 100 µM,> 100 µM,> 100 µM,> 100 µM,> 100 µM
CC(C)(C)c1cc(S(=O)(=O)O)c2oc(-c3ccccc3)cc(=O)c2c1,–,> 100 µM,> 100 µM,–,–,–,> 100 µM,> 100 µM,> 100 µM,> 100 µM,> 100 µM,> 100 µM,–,> 100 µM,–,> 100 µM,> 100 µM,> 100 µM,> 100 µM,> 100 µM
O=C(CP(=O)(c1ccccc1)c1ccccc1)c1cccc(C(=O)CP(=O)(c2ccccc2)c2ccccc2)c1,–,> 100 µM,> 100 µM,–,> 100 µM,–,> 100 µM,> 100 µM,> 100 µM,–,> 100 µM,> 100 µM,> 100 µM,> 100 µM,> 100 µM,–,> 100 µM,–,> 100 µM,–
CC(=O)OCC(OC(C)=O)C1C[C@H]2O[C@@H]3[C@H](C[C@H]2O1)O[C@@]1(C[C@@H]3C)C[C@H](C)[C@@H]2O[C@]3(C[C@@H]2O1)C[C@H]1O[C@H]2[C@H](C)[C@H]4OC(=O)C[C@H]5CC[C@@H]6OC7[C@H]8O[C@]9(CC[C@H]%10CC(=O)[C@H](CC[C@H]%11C[C@@H](C)C(=O)C(C[C@@H]4O[C@H]2C[C@H]1O3)O%11)O%10)CC8O[C@@H]7[C@@H](O9)[C@H]6O5 (stereo partly specified),> 1 µM,> 0.39 µM,> 1 µM,–,> 1 µM,–,> 1 µM,> 1 µM,> 1 µM,–,> 0.2 µM,0.0749 µM,> 1 µM,> 1 µM,> 1 µM,–,> 0.258 µM,> 1 µM,> 1 µM,–
Cc1ccc(S(=O)(=O)NC(=O)NCc2ccc(S(N)(=O)=O)cc2)cc1,> 100 µM,> 100 µM,> 100 µM,–,> 100 µM,–,> 100 µM,> 100 µM,> 100 µM,> 100 µM,> 100 µM,> 100 µM,> 100 µM,–,> 100 µM,> 100 µM,–,> 100 µM,> 100 µM,–
CSC1=N/C(=C\c2ccc(C)cc2)C(=O)N1,–,> 100 µM,> 100 µM,–,> 100 µM,–,> 100 µM,> 100 µM,> 100 µM,> 100 µM,> 100 µM,> 100 µM,> 100 µM,> 100 µM,> 100 µM,> 100 µM,> 100 µM,> 100 µM,–,> 100 µM
O=C1C2=Cc3ccccc3CCN2c2ccccc21,25.9 µM,> 70.4 µM,48 µM,–,–,–,> 100 µM,> 31.6 µM,> 100 µM,> 76.7 µM,> 62 µM,> 56 µM,> 100 µM,26.1 µM,67.9 µM,> 100 µM,> 100 µM,> 31.6 µM,20.5 µM,–
N=C1C(=N)c2ccccc2-c2ccccc21.[Cl-].[Ru+2].c1cnc2c(c1)ccc1cccnc12.c1cnc2c(c1)ccc1cccnc12,–,88.8 µM,96.9 µM,–,> 100 µM,–,72.6 µM,41.4 µM,> 100 µM,73.6 µM,> 100 µM,–,77.7 µM,74.7 µM,91.4 µM,> 100 µM,95.6 µM,73.9 µM,78.9 µM,–
Cc1cccc2nc(-c3ccccc3)cc(=O)n12,–,> 100 µM,> 100 µM,–,> 100 µM,–,> 100 µM,> 100 µM,> 100 µM,> 100 µM,> 100 µM,> 100 µM,> 100 µM,> 100 µM,–,> 100 µM,> 100 µM,> 100 µM,> 100 µM,> 100 µM
COc1ccc(NC(=S)Nc2cc(C)ccn2)cc1,> 100 µM,> 100 µM,> 100 µM,–,> 100 µM,–,> 100 µM,> 100 µM,> 100 µM,–,> 100 µM,> 100 µM,> 100 µM,> 100 µM,> 100 µM,> 100 µM,> 100 µM,> 100 µM,> 100 µM,–
